Data as given in PubChem BioAssay AID493105 (The Scripps Research Institute Molecular Screening Center, 2011).
Activity calls are given as the source filed them. How the calls were made is not given here.

Legend:
Test in all cases: LYPLA1 and LYPLA2 inhibitors, biochemical, gel-based ABPP, fluorescence, recombinant and endogenous enzyme (AID 493105)
emLYPLA1 = conditions: fluorescent probe labeling, membrane fraction, at 20 µM, stronger effect = higher value
rhLYPLA1 = conditions: fluorescent probe labeling, soluble fraction, at 20 µM, stronger effect = higher value
emLYPLA2 = conditions: fluorescent probe labeling, membrane fraction, at 20 µM, stronger effect = higher value
rhLYPLA2 = conditions: fluorescent probe labeling, membrane fraction, at 20 µM, stronger effect = higher value

Row | Compound | inhibition (emLYPLA1) | inhibition (rhLYPLA1) | inhibition (emLYPLA2) | inhibition (rhLYPLA2)
1 | C/C(=C\c1ccccc1)CN1CCN(c2cccc(Cl)c2)CC1 | 0% (inactive) | 0% (inactive) | 0% (inactive) | 0% (inactive)
2 | CC1CC(C)CN(S(=O)(=O)c2ccc3c(c2)CC(C)N3C(=O)C2CCC2)C1 (configuration not stated) | 0% (inactive) | 9% (inactive) | 0% (inactive) | 0% (inactive)
3 | O=C(COc1ccc(Br)cc1)N1CCN(c2ccc([N+](=O)[O-])c(N3CCCCC3)c2)CC1 | 0% (inactive) | 45% | 3% (inactive) | 7% (inactive)
4 | COc1ccc(-n2nc(C(=O)NCC(=O)N3CCN(Cc4ccccc4)CC3)c3ccccc3c2=O)cc1 | – | 17% (inactive) | 43% | 17% (inactive)
5 | Cc1[nH]c2ccccc2c1C(=O)CN1CCN(C/C=C/c2ccccc2)CC1 | 0% (inactive) | 0% (inactive) | 0% (inactive) | 0% (inactive)
6 | NS(=O)(=O)c1ccc(CCNC(=O)c2cc([N+](=O)[O-])ccc2N2CCCCC2)cc1 | 0% (inactive) | 49% | 0% (inactive) | 0% (inactive)
7 | O=C(Nc1ccc2oc(-c3cccnc3)nc2c1)c1ccc2c(c1)OCCO2 | 0% (inactive) | 0% (inactive) | 0% (inactive) | 0% (inactive)
8 | COc1ccc(S(=O)(=O)Nc2ccc(Cc3ccncc3)cc2)cc1C | – | 12% (inactive) | 0% (inactive) | 0% (inactive)
9 | Cc1ccc(C)c(C(=O)CCC(=O)N2CCN(c3cccc(C(F)(F)F)c3)CC2)c1 | 4% (inactive) | 31% | 4% (inactive) | 0% (inactive)
10 | COc1ccc(OCC(O)CN2CCC(CN3C(=O)c4cccc5cccc(c45)C3=O)CC2)cc1 (configuration not stated) | 0% (inactive) | 0% (inactive) | 16% (inactive) | 9% (inactive)
11 | COc1ccccc1-c1csc(-n2ncc(C#N)c2N)n1 | – | 0% (inactive) | 6% (inactive) | 4% (inactive)
12 | Cc1ccc(N2CCN(C3=NC(=O)/C(=C\c4cccs4)S3)CC2)cc1 | – | 0% (inactive) | 0% (inactive) | 5% (inactive)
13 | O=c1[nH]c(CN2CCN(C/C=C/c3ccccc3)CC2)nc2cc(Cl)ccc12 | – | 3% (inactive) | 2% (inactive) | 0% (inactive)
14 | O=C(COc1ccc(Cl)cc1)N1CCN(c2cccc(C(F)(F)F)c2)CC1 | 0% (inactive) | 0% (inactive) | 9% (inactive) | 0% (inactive)
15 | O=[N+]([O-])c1ccc(N2CCC(=NOCc3ccc(Cl)cc3)CC2)cc1 | 12% (inactive) | 22% (inactive) | 13% (inactive) | 0% (inactive)
16 | COc1ccc(C(=O)NC(=S)Nc2ccc(N3CCOCC3)cc2)cc1Cl | 0% (inactive) | 0% (inactive) | 8% (inactive) | 1% (inactive)
17 | CSc1ccccc1OCc1cc(C(=O)N2CCC(Oc3cccnc3)CC2)no1 | – | 0% (inactive) | 16% (inactive) | 6% (inactive)
18 | CC1CCc2c(sc(NC(=O)CN3CCN(C(=O)c4ccco4)CC3)c2C#N)C1 (configuration not stated) | 3% (inactive) | 16% (inactive) | 0% (inactive) | 0% (inactive)
19 | O=C(CN1CCN(C(=O)c2ccco2)CC1)Nc1cc(Cl)ccc1Cl | 37% | 60% | 0% (inactive) | 0% (inactive)
20 | O=C(COc1ccc(Cl)cc1)N1CCN(C/C=C/c2ccccc2)CC1 | – | 0% (inactive) | 25% (inactive) | 12% (inactive)
21 | N#Cc1c(N)nc(SCc2ccncc2)c(C#N)c1-c1cccs1 | 10% (inactive) | 3% (inactive) | 16% (inactive) | 11% (inactive)
22 | O=[N+]([O-])c1cccc(/C=N/N2CCN(Cc3ccc(Cl)cc3)CC2)c1 | 0% (inactive) | 0% (inactive) | 0% (inactive) | 0% (inactive)
23 | COc1cc(/C=N/N2CCN(Cc3ccc(Cl)cc3)CC2)cc(Br)c1O | 0% (inactive) | 31% | 0% (inactive) | 0% (inactive)
24 | COc1ccc(-n2nc(C(=O)NCC(=O)N3CCN(Cc4ccc5c(c4)OCO5)CC3)c3ccccc3c2=O)cc1OC | 8% (inactive) | 35% | 68% | 50%

Row | Compound | inhibition (emLYPLA1) | inhibition (rhLYPLA1) | inhibition (emLYPLA2) | inhibition (rhLYPLA2)
25 | CC(=O)c1ccc(N2CCN(C(=O)c3ccc(C(=O)c4ccccc4)cc3)CC2)cc1 | 13% (inactive) | 0% (inactive) | 0% (inactive) | 2% (inactive)
26 | CC(=O)N1CCC2(CC1)C/C(=N\NC(=S)Nc1ccc(C)cc1)c1cc(O)ccc1O2 | 0% (inactive) | 3% (inactive) | 1% (inactive) | 0% (inactive)
27 | O=C(CCCCn1c(=O)[nH]c2ccccc2c1=O)N1CCN(c2cccc(C(F)(F)F)c2)CC1 | 0% (inactive) | 0% (inactive) | 0% (inactive) | 0% (inactive)
28 | CCOc1cc(CN2CCCC(C(=O)c3cccc(C(F)(F)F)c3)C2)ccc1O (configuration not stated) | 0% (inactive) | 2% (inactive) | 0% (inactive) | 0% (inactive)
29 | CCOc1ccc(NC(=S)NC(=O)c2c(Br)cnn2C)c([N+](=O)[O-])c1 | – | 17% (inactive) | 16% (inactive) | 5% (inactive)
30 | Cc1ccc(CN2CCN(/N=C/C=C/c3ccccc3[N+](=O)[O-])CC2)cc1 | 0% (inactive) | 27% (inactive) | 26% (inactive) | 10% (inactive)
31 | COc1ccc(-n2nc(C(=O)NCC(=O)N3CCN(c4cccc(Cl)c4)CC3)c3ccccc3c2=O)c(OC)c1 | 16% (inactive) | 0% (inactive) | 83% | 61%
32 | O=C(NCCNC(=O)c1cc(OCC(F)(F)F)ccc1OCC(F)(F)F)Nc1cccc(C(F)(F)F)c1 | 12% (inactive) | 57% | 7% (inactive) | 0% (inactive)
33 | N#Cc1c(NC(=O)CSc2nc(N)cc(=O)[nH]2)sc2c1CCCC2 | 0% (inactive) | 26% (inactive) | 0% (inactive) | 3% (inactive)
34 | Cc1nn(-c2ccccc2)c(N2CCCC2)c1/C=N/Nc1ccc(S(N)(=O)=O)cc1[N+](=O)[O-] | 0% (inactive) | 7% (inactive) | 1% (inactive) | 0% (inactive)
35 | Cc1ccc(OCC(=O)N2CCN(C(=O)CCC3CCCC3)CC2)cc1 | 14% (inactive) | 43% | 14% (inactive) | 3% (inactive)
36 | O=C(N1CCOCC1)n1nnc2ccccc21 | 99% | 98% | 88% | 76%
37 | Nc1nc(NCc2ccco2)nc(N2CCN(Cc3ccccc3)CC2)c1[N+](=O)[O-] | – | 2% (inactive) | 1% (inactive) | 5% (inactive)
38 | O=C(NC(=S)Nc1sc2c(c1C(=O)O)CCCC2)c1ccccc1 | – | 2% (inactive) | 52% | 34%
39 | O=C(c1ccc(-c2ccccc2)c(F)c1)C1CCCN(C(=O)c2cncs2)C1 (configuration not stated) | – | 0% (inactive) | 12% (inactive) | 6% (inactive)
40 | O=C(c1ccc(S(=O)(=O)N2CCCCC2)cc1)N1CCN(CCN2C(=O)c3cccc4cccc(c34)C2=O)CC1 | – | 11% (inactive) | 27% (inactive) | 20% (inactive)
41 | COc1ccc(N2CCN(C(=O)CCCCCn3c(=O)[nH]c4ccsc4c3=O)CC2)cc1 | – | 0% (inactive) | 6% (inactive) | 6% (inactive)
42 | COc1cc([C@H]2Oc3cc([C@H]4Oc5cc(O)cc(O)c5C(=O)[C@@H]4O)ccc3O[C@@H]2CO)ccc1O | – | 13% (inactive) | 42% | 28% (inactive)
43 | O=C(/C=C/c1ccccc1)N1CCN(CCN2C(=O)c3cccc4cccc(c34)C2=O)CC1 | – | 15% (inactive) | 34% | 18% (inactive)
44 | O=C(c1cc(COc2cccc(C(F)(F)F)c2)on1)N1CCC(Oc2cccnc2)CC1 | – | 0% (inactive) | 0% (inactive) | 0% (inactive)
45 | O=C(/C=C/c1ccc(Br)cc1)N1CCN(c2cccc(C(F)(F)F)c2)CC1 | – | 16% (inactive) | 16% (inactive) | 15% (inactive)
46 | O=C(COc1ccc(Cl)cc1)N1CCN(c2ccc([N+](=O)[O-])c(N3CCCCC3)c2)CC1 | – | 36% | 10% (inactive) | 5% (inactive)
47 | COc1ccc(C(=O)NC(=S)Nc2ccc(N3CCOCC3)c(Cl)c2)cc1[N+](=O)[O-] | – | 7% (inactive) | 1% (inactive) | 5% (inactive)
48 | Cc1cc(OCc2cc(C(=O)N3CCC(Oc4cccnc4)CC3)no2)cc(C)c1Cl | – | 0% (inactive) | 5% (inactive) | 3% (inactive)
